In brackets after ≈: the same amount, converted by molar mass. Several values for one entry are separate records, joined by “and”; a condition that tells them apart may be missing. Identical values can stand only once.
Key:
[1] = Pharmacokinetic studies in uninfected CD-1 mice (plasma and urine levels); format: in vivo; settings: for epimerization in plasma and urine in vivo / urine concentrations at time points > 24 hours / plasma levels at 30 mg/kg IV compared with 15 mg/kg IV / urine levels at 30 mg/kg IV compared with 15 mg/kg IV: mice; for F (bioavailability) / AUC0-t / C0 / Cl/F_obs / MRT / Vz/F_obs / t1/2 (plasma half-life) / Tmax / Cmax: CD-1 mice
Procedure: CHD and CDCHD were administered in single PK studies at the doses of 15 mg/kg and 30 mg/kg IV, at 15 mg/kg SC, and 15 mg/kg PO. Up to 25 µL of blood was collected from the lateral tail vein (n = 3 per time point) and time points t = 0.5, 1, 2, 4, and 8 hours. For 15 mg/kg IV- and PO-administered compounds, blood was also collected at time points t = 24 and 48 hours. For IV- and SC-administered compounds, blood was also collected at t = 0.25 hours. At t = 24 hours (15 mg/kg SC, 30 mg/kg IV) or 72 hours (15 mg/kg IV and PO), animals were euthanized to collect blood. At every blood collection, time point spontaneous urine was collected as well. Whole blood was collected into Eppendorf tubes coated with 0.5 M EDTA and immediately spun down at 15,870× g for 10 min at 4°C. Then, plasma was transferred into a new Eppendorf tube and stored at −80°C until analysis.
First, a calibration curve was prepared by spiking different concentrations of CHD and CDCHD into mouse plasma or mouse urine (matrix for mouse PK or PD samples) from CD-1 mice. Caffeine was used as an internal standard. In addition, quality control samples (QCs) were prepared for CHD and CDCHD in plasma and urine. The following extraction procedures were used: 7.5 µL of a plasma or urine sample (calibration samples, QCs, PK or PD samples) was extracted with 37.5 µL of a mixture of methanol/acetonitrile (2:1) containing 12.5 ng/mL of glipizide as an internal standard for 5 min at 2,000 rpm on an Eppendorf MixMate® vortex mixer. Then samples were spun down at 15,870× g for 10 min. Supernatants were transferred to standard HPLC glass vials.
Samples were analyzed using an Agilent 1290 HPLC system coupled to an AB Sciex QTrap 6500 mass spectrometer. LC conditions were as follows: column: Agilent Zorbax Eclipse Plus C18, 50 × 2.1 mm, 1.8 µm; temperature: 30°C; injection volume: 5 µL per sample; flow rate: 700 µL/min. Samples were run under the following conditions. Solvents for acidic conditions: A: 100% water +0.1% formic acid; solvent B: 100% acetonitrile +0.1% formic acid. The gradient for CDCHD was as follows: 99% A at 0 min, 99% A until 1 min, 99%–50% A from 1 to 2.4 min, 50%–35% A from 2.4 to 2.7 min, 35–0% A from 2.7 until 4.5 min, 0% A until 6 min, 0-99% from 6 to 6.2 min, 99% A until 8.0 min. The gradient for CHD was as follows: 99%–90% A from 0 to 1 min, 90%–55% A from 1 to 2.3 min, 50%–40% A from 2.3 to 2.5 min, 40%–0% A from 2.5 to 4.5 min, 0% A until 6 min, 0%–99% A from 6 to 6.2 min, 99% A until 8.0 min. Mass transitions are depicted in Table S3. Peaks of PK and PD samples were quantified using the calibration curve. The accuracy of the calibration curve was determined using QCs independently prepared on different days. PK parameters were determined using a non-compartmental analysis with PKSolver ([55]).

K. pneumoniae strains = system: K. pneumoniae strains; parameters: method as in PMID 32962088; settings: selection of different K. pneumoniae strains; cited from earlier work
K. pneumoniae ATCC 43816 = assay: MIC determination; format: cell-based; settings: MHB (not cation-adjusted) medium
Procedure: (§1) The assay was conducted as described previously ([54]) with the following modifications. The MIC was tested against the K. pneumoniae strain ATCC 43816 in an MHB (not cation-adjusted) medium. CHD and CDCHD were tested in concentrations ranging from 0.078 to 10 µg/mL. Moreover, the MIC was determined for the following strains: K. pneumoniae DSM-30104, E. faecium DSM-20477, S. aureus DSM-346, P. aeruginosa DSM-11128, A. baumannii DSM-30008, E. aerogenes DSM-30053, E. coli ATCC 25922, and E. coli C175-94. All strains were grown in MHB medium, except for E. faecium, which was grown in TSB. CHD, epi-CDH, and CDCHD were tested in concentrations ranging from 0.125 to 64 µg/mL as described previously ([19]).

ESKAPE pathogens = assay: MIC determination against a variety of ESKAPE pathogens; format: cell-based; settings: against A. baumannii, P. aeruginosa, and E. aerogenes
Procedure: as §1

[2] = plasma, 15 mg/kg IV, for CHD active CHD only

Structure (SMILES)	epimerization in plasma and urine in vivo ([1]; 15 mg/kg IV)	urine concentrations at time points > 24 hours ([1]; 15 mg/kg IV)	F (bioavailability) ([1]; 15 mg/kg PO, 15 mg/kg)	F (bioavailability) ([1]; 15 mg/kg SC, 15 mg/kg)	AUC0-t ([1]; plasma, 15 mg/kg IV)	C0 ([1]; plasma, 15 mg/kg IV)	Cl/F_obs ([1]; plasma, 15 mg/kg IV)	MRT ([1]; plasma, 15 mg/kg IV)	Vz/F_obs ([1]; plasma, 15 mg/kg IV)	C0 [1, 2]	t1/2 (plasma half-life) [1, 2]	AUC0-t ([1]; plasma, 15 mg/kg PO)	Cl/F_obs ([1]; plasma, 15 mg/kg PO)	MRT ([1]; plasma, 15 mg/kg PO)	Tmax ([1]; plasma, 15 mg/kg PO)	Vz/F_obs ([1]; plasma, 15 mg/kg PO)	AUC0-t ([1]; plasma, 15 mg/kg SC)	Cl/F_obs ([1]; plasma, 15 mg/kg SC)	MRT ([1]; plasma, 15 mg/kg SC)	Vz/F_obs ([1]; plasma, 15 mg/kg SC)	further results
Cc1ccc2c(C)c3c(c(O)c2c1O)C(=O)C1(O)C(=O)C(C(N)=O)=C(O)C(N)C1C3 (stereo not drawn) [CDCHD, 2-carboxamido-2-deacetyl-chelocardin]	This was not the case for CDCHD	found at high concentrations	6% and 5.9%	24% and 23.5%	13,229.0 ± 1,147.2 ng/mL*h	around 1.3 µg/mL	16.0 ± 1.4 mL/min/kg	33.4 ± 8.0 h	33.4 ± 6.1 L/kg	1,336.4 ± 523.5 ng/mL	24.3 ± 5.2 h	780.9 ± 187.8 ng·h/mL	294.3 ± 99.2 mL/min/kg	27.9 ± 7.1 h	7.3 ± 1.6 h	394.5 ± 122.6 L/kg	3,109.3 ± 592.0 ng/mL*h	34.5 mL/min/kg	57.3 h	119.2 L/kg	plasma concentrations of CDCHD relative to the active CHD ([1]; 15 mg/kg IV, time points > 24 hours, higher than active CHD): 10 fold; Cmax ([1]; plasma, 15 mg/kg SC, 15 mg/kg): 171 ng/mL and 171.7 ± 17.7 ng/mL; plasma levels at 30 mg/kg IV compared with 15 mg/kg IV [1]: increased plasma levels (by a factor of more than two); urine levels at 30 mg/kg IV compared with 15 mg/kg IV [1]: in a similar range; MIC (K. pneumoniae strains): ~ 4 µg/mL
CC(=O)C1=C(O)[C@H](N)[C@@H]2Cc3c(c(O)c4c(O)c(C)ccc4c3C)C(=O)[C@]2(O)C1=O [CHD, chelocardin]	epimerization was also observed for CHD in plasma and to a lower extent in urine	already declined	24% and 24.2%	90% and 90.2%	31,550.8 ± 2,722.6 ng/mL*h	more than 4 µg/mL	7.9 ± 0.6 mL/min/kg	8.5 ± 0.2 h	5.6 ± 0.5 L/kg	4,234.3 ± 1,737.1 ng/mL	8.2 ± 0.3 h	7,636.3 ± 840.7 ng/mL*h	31.0 ± 4.3 mL/min/kg	19.1 ± 4.1 h	3.3 ± 1.2 h	55.5 ± 14.5 L/kg	28,457.0 ± 4,506.2 ng/mL*h	8.1 ± 1.1 mL/min/kg	9.7 ± 1.8 h	4.8 ± 1.5 L/kg	Cmax of CHD relative to CDCHD ([1]; 15 mg/kg PO, higher than CDCHD): more than 15 times; plasma levels of CHD relative to CDCHD ([1]; 15 mg/kg SC, higher than CDCHD): around 10 fold; Cmax ([1]; plasma, 15 mg/kg PO): 460.5 ± 58.6 ng/mL; Cmax ([1]; plasma, 15 mg/kg SC): 2,109.3 ± 601.9 ng/mL; Tmax ([1]; plasma, 15 mg/kg SC): 4.0 ± 0.0 h; Cmax ([1]; plasma, 15 mg/kg SC (text)): around 2.1 µg/mL; plasma levels at 30 mg/kg IV compared with 15 mg/kg IV [1]: in a similar range as for the 15 mg/kg IV dose; urine levels at 30 mg/kg IV compared with 15 mg/kg IV [1]: increased urine levels; AUC of CHD relative to CDCHD ([1]; plasma, higher than CDCHD, stated in the 15 mg/kg SC paragraph): 3 times; MIC (K. pneumoniae ATCC 43816): 5 µg/mL (≈ 12.2 µM); activity (in words) (ESKAPE pathogens): inactive; MIC (K. pneumoniae strains): ~ 4 µg/mL

From paper PMC10783034, “Pharmacokinetic and pharmacodynamic evaluation of the atypical tetracyclines chelocardin and amidochelocardin in murine infection models” (Microbiology Spectrum, 2023)
